Laboratory results reported in patent publication US8940936B2, “Aryloxy phenoxy acrylic compound having HIF-1 inhibition activity, method for preparing same, and pharmaceutical composition containing same as an active ingredient” (Korea Research Institute of Bioscience and Biotechnology, priority 2010, dated 2015).

Test system: HIF-1
Assay: Inhibition of HIF-1 mediated HRE transcription activity (pGL3-HRE-luciferase reporter)
Format: cell-based, human
Conditions: HCT116, hypoxic condition 12 hours
Description: To investigate the inhibition of HIF-1 transcription activity by the compound of the present invention, pGL3-basic vector (Promega) using luciferase as a reporter was cloned in multi-cloning site so as for HRE (Hypoxia Responsive Element, 5′-ACGTG-3′) existing in human VEGF gene to be repeated 6 times, resulting in the construction of pGL3-HRE-luciferase vector.
The human rectal cancer cell line HCT116 was seeded in a 48-well cell culture vessel. On the next day, the cells were transfected with 25 ng of pGL3-HRE-luciferase vector and 2.5 ng of Renilla control vector by using Polyfect reagent. After culturing the cells for 24 hours, the medium was replaced, followed by further culture for 4 hours. Then, the cells were treated with the compound prepared in each example at the concentration of 10 μM respectively, followed by culture in hypoxic condition (oxygen 1%, nitrogen 94%, carbon dioxide 5%) for 12 hours. Lysate was obtained by using RIPA buffer, by which hypoxia-induced luciferase activity was measured by using dual-luciferase assay system (Promega). Hypoxia-induced luciferase activity after the treatment of the compound prepared in example 1 or the compound prepared in comparative example 1 was measured by the same manner as described above except that the compound was treated at the concentrations of 0, 1, 3, 5, 10, and 20 μM. HIF-1 inhibition activity of each compound prepared in example 1 and comparative example 1 respectively was compared and the results are shown in Table 2 and FIG. 2.

Structure (SMILES): COC(=O)c1ccc(O)c(NC(=O)COc2ccc(C34CC5CC(CC(C5)C3)C4)cc2)c1 [Comparative Example 1, 3-[2-(4-adamantan-1-yl-phenoxy)-acetylamino]-4-hydroxy-benzoic acid methyl ester, reference compound]
- HRE transcription activity (%) (1 μM): 119.4%
- HRE transcription activity (%) (3 μM): 121.5%
- HRE transcription activity (%) (5 μM): 98.8%
- HRE transcription activity (%) (10 μM): 75.6%
- HRE transcription activity (%) (20 μM): 43.1%
